The source made the active and inactive calls.
Columns and labels:
[1] = target: FAD-linked sulfhydryl oxidase ALR (Homo sapiens, UniProt P55789); assay: ALR-catalysed DTT oxidation blockers – biochemical, H2O2 detection, luminescence, cherry-pick, dose response (AID 493248)
[2] = Luminescence Cell-Based Dose Confirmation HTS to Identify Activators of 5'UTR Stem-Loop Driven Alpha-Synuclein mRNA Translation in H4 Neuroglioblastoma Cells. [Related pubchem assays: 1829 (Project Summary), 1814 (Primary HTS)]; assay type: functional
[3] = Luminescence Cell-Based Dose Response HTS to Identify Activators of Luciferase Translation or Activity in H4 […] Cells. [Related pubchem assays: 1829 (Project Summary), 1814 (Primary HTS)]; assay type: functional
[4] = system: Streptococcus sp. 'group A'; assay: Streptococcus pyogenes SK(-)GAS viability under kanamycin – luminescence, BacTiterGlo, confirmation, counter-screen for streptokinase expression inhibitor project, dose response (AID 1900); assay type: functional, organism-based
H4 = assay: Luminescence Cell-Based Dose Response HTS to Identify Activators of 5'UTR Stem-Loop Driven Prion Protein mRNA Translation in H4 Neuroglioblastoma Cells. [Related pubchem assays: 1829 (Project Summary), 1814 (Primary HTS)]; assay type: functional; settings: Homo sapiens
Streptokinase A = target: T1, Streptokinase A (Streptococcus pyogenes serotype M1, UniProt P10520); assay: viability-normalized secreted streptokinase activity reduction – plasminogen activation absorbance, OD405, dose response (AID 1914); assay type: functional, Streptococcus pyogenes M1 GAS;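 also: secreted streptokinase activity via plasminogen activation per viability signal from cell pellet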
T1 sequence (P10520 whole entry): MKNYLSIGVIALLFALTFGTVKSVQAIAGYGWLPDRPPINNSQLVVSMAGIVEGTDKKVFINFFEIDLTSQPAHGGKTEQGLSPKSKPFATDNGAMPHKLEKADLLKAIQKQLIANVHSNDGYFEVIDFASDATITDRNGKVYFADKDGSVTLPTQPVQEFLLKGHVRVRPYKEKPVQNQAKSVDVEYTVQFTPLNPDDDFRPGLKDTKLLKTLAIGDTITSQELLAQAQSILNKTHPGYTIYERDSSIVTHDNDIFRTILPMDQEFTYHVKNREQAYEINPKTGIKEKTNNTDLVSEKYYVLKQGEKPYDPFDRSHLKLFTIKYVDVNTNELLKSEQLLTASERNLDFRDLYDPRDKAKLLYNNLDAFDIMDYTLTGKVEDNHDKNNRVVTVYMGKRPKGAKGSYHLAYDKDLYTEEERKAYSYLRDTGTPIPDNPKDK

Streptococcus = assay: GAS UMAA2166 growth inhibition – luminescence, BacTiterGlo, counter-screen for streptokinase expression inhibitor project, dose response (AID 1915); assay type: functional, organism-based;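 also: potency for reduction of bacterial viability or growth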
[5] = target: T2, Rac GTPase-activating protein 1 (Homo sapiens, UniProt Q9H0H5); assay: blockers of MgcRacGAP-driven Rac1 GTP hydrolysis – biochemical, ADP Hunter fluorescence, primary and confirmatory, confirmation (AID 624330); assay type: functional
T2 sequence (Q9H0H5 whole entry): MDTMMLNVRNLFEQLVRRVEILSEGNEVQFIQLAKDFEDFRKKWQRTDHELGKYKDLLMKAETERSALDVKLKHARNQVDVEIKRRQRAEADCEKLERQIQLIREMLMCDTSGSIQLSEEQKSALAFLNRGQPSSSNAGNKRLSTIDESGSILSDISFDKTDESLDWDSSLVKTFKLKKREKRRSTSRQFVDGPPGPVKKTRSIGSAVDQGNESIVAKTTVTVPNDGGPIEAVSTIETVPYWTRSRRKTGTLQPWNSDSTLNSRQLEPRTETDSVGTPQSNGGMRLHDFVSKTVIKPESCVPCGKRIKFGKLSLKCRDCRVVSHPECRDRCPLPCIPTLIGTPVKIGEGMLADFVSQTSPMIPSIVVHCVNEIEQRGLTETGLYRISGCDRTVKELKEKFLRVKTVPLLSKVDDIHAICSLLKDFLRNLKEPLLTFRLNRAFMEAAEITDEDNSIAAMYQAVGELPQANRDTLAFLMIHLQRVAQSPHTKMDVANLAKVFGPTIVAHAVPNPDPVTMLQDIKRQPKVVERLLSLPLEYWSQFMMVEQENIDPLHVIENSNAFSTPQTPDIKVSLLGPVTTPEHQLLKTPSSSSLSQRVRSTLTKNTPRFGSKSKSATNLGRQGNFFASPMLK

[6] = target: T3, Heat shock factor protein 1 (Mus musculus, UniProt P38532); assay: enhancement of HSF1-driven luciferase signal – cell-based, NIH3T3, luminescence, dose retest, confirmation (AID 435004); assay type: functional;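 also: stress induced by proteasome inhibitor MG132 added 30 min after compound; luciferase reporter driven by HSF1 response element in NIH3T3 cells; actives raise luminescence as potentiators of the MG132 stress response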
T3 sequence (P38532 whole entry): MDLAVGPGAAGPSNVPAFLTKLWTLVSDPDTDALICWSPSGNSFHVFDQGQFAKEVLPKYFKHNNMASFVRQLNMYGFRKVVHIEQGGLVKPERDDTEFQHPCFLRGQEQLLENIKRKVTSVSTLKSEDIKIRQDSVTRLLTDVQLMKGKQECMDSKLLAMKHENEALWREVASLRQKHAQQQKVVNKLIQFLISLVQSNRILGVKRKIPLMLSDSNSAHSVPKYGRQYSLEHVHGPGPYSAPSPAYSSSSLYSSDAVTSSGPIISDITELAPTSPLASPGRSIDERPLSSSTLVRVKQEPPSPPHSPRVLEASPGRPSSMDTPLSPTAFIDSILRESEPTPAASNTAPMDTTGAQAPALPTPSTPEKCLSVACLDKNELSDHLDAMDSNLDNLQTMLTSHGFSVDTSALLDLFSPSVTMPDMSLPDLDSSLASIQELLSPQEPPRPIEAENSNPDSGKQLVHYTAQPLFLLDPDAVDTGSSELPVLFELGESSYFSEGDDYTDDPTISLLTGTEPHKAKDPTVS

Cytochrome P450 2C19 = Cytochrome P450 2C19 (Homo sapiens, UniProt P33261); assay: Cytochrome panel assay with activity outcomes. Panel member name: p450-cyp2c19 Compounds with AC50 equal or less than 10 uM are considered active; assay type: functional; settings: read-out: AC50
Chain of Cytochrome P450 2C19 (P33261 whole entry): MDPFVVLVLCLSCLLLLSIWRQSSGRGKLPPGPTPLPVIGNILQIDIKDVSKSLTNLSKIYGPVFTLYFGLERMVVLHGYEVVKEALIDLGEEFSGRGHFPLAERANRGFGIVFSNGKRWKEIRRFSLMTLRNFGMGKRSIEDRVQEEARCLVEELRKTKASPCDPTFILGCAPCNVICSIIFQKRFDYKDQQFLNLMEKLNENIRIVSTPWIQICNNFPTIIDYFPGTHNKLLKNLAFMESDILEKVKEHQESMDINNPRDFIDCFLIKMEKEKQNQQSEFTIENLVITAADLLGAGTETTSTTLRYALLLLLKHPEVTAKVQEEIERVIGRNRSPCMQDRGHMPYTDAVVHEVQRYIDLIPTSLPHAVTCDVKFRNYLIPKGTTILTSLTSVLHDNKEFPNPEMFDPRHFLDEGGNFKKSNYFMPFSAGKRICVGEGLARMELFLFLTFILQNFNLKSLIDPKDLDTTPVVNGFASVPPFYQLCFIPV

Cytochrome P450 1A2 = target: T4, Cytochrome P450 1A2 (Homo sapiens, UniProt P05177);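 also: PubChem cytochrome P450 panel assay, CYP1A2 panel member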
T4 sequence (P05177 whole entry): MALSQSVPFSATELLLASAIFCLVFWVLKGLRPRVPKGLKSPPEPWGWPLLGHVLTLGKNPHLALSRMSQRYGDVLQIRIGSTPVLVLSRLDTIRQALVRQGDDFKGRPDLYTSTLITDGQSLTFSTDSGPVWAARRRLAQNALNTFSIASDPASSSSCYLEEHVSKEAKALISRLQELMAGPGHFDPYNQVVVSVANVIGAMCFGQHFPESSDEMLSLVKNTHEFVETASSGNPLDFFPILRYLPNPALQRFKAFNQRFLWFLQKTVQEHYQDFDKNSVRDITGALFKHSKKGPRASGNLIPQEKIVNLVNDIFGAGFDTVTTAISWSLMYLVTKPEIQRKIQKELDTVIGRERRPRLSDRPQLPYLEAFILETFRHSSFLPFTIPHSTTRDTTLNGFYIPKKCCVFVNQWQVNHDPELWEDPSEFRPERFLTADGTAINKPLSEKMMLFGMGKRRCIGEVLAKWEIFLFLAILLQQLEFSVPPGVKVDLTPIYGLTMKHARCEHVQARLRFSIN

Chain of FAD-linked sulfhydryl oxidase ALR (P55789 whole entry): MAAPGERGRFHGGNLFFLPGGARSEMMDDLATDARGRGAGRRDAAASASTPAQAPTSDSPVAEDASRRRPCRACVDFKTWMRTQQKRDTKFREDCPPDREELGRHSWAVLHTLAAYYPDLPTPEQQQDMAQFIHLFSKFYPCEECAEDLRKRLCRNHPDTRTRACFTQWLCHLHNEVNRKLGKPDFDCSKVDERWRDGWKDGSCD

Structure (SMILES) | AC50 [1] | EC50 [2] | EC50 [3] | EC50 (H4) | also measured
[O-]c1c[n+](-c2ccc(-[n+]3cc([O-])on3)cc2)no1 | 4.1 µM (active) | – | – | – | –
Cc1ccc2occ(C3N[C@H](C(=O)O)CS3)c(=O)c2c1 (stereo not given in full) | 0.392 µM (active) | – | – | – | –
O=C(NCC(=O)N1CCN(c2ccccc2O)CC1)c1ccco1 | 2.22 µM (active) | – | – | – | –
Oc1ccccc1/C=N/Nc1ccccc1 | 7.86 µM (active) | – | – | – | –
CCC1(C(=O)O)NC(c2cc(OC)ccc2O)C2C(=O)N(Cc3ccccc3)C(=O)C21 (stereo not given) | 7.15 µM (active) | – | – | – | –
c1ccc(-c2onc(-c3ccco3)c2-c2ccc3[nH]ccc3c2)cc1 | – | 14.3 µM (active) | 63.1 µM (active) | 23.7 µM (active) | EC50 [4]: 3.19 µM (active); EC50 (Streptokinase A): 4.99 µM (active); EC50 (Streptococcus): 26.4 µM (active)
O=C(c1cccc(C(F)(F)F)c1)C1CCCN(C(=O)c2cc(C3CC3)[nH]n2)C1 (stereo not given) | 0.392 µM (active) | – | – | – | –
Cc1ccc(C)c(NC(=O)NNS(=O)(=O)c2ccc(C)c(C)c2)c1 | 3.8 µM (active) | – | – | – | –
CCN(CC)C(=N)/C(C#N)=N/Nc1ccc(C)cc1 | 0.035 µM (active) | – | – | – | –
Cn1cccc1/C=N/N1CCN(c2ccccc2)CC1 | 85.3 µM (active) | – | – | – | IC50 [5]: 84.2 µM (active)
CCN(CC)c1ccc(NS(=O)(=O)c2ccc(-c3ccc(O)nn3)o2)c(C)c1 | 0.382 µM (active) | – | – | – | –
Cc1ccc(-c2c3c(=O)n(C)c(=O)n(C)c3cn2-n2cnnc2)cc1 | 9.89 µM (active) | – | – | – | EC50 [6]: 13.5 µM (active)
CC(C)(C)OC(=O)NCc1nnc(S)n1C1CC1 | 5.46 µM (active) | – | – | – | –
COc1ccc(OCc2cc(C(=O)N(C)Cc3cc(C)no3)no2)c(Cl)c1 | – | 1.42 µM (active) | 65.1 µM (active) | 10.1 µM (active) | –
Cc1c(C(=O)O)c2cc(O)ccc2n1-c1ccccc1 | 5.18 µM (active) | – | – | – | –
CCCn1c2ccc(/C(C)=N\O)cc2c2cc(/C(C)=N/O)ccc21 | 0.028 µM (active) | – | – | – | –
CC1CCC(NC(=O)Cn2c(=O)[nH]c3ccsc3c2=O)CC1 (stereo not given) | – | 12.4 µM (active) | 29.3 µM (active) | 90.1 µM (active) | –
O=C(COc1ccc(Br)cc1Br)NC(=O)NC1CCCC1 | – | 8.14 µM (active) | 33.4 µM (active) | > 120 µM (not active) | –
Cc1ccc(C(=O)CCC2CCCCC2=O)cc1 (stereo not given) | – | 13.2 µM (active) | 36.7 µM (active) | 28.4 µM (active) | –
CCc1ccc(CN(C(=O)c2cc3ccccc3oc2=O)C2CCS(=O)(=O)C2)cc1 (stereo not given) | – | 27.7 µM (active) | 28.6 µM (active) | 0.547 µM (active) | AC50 (Cytochrome P450 2C19): 20 µM (inconclusive); AC50 (Cytochrome P450 1A2): 28.2 µM (inconclusive)
COc1cccc(Oc2nnnn2-c2ccccc2)c1 | – | 0.44 µM (active) | 54.7 µM (active) | > 120 µM (not active) | –
Cc1ccccc1C(=O)ON=C(N)c1cccc([N+](=O)[O-])c1 | – | 13.8 µM (active) | 17 µM (active) | 27.5 µM (active) | –
